From patent publication US11053282B2, “Peptoid affinity ligands” (MIKE-ANN, LLC, priority 2016, dated 2021)
*1 amine or outer side, *2 acyl side, *3 side chain or, on linkers, in order; H or OH if unused. Where a SMILES comes first, the peptide text is derived from it. [ ]: non-standard residue; d: D form. ξ: configuration not given here. Gly(N(CH2)2(3-indolyl)) = O=C(O)CNCCc1c[nH]c2ccccc12; NGly(CH2(3-pyridyl)) = O=C(O)CNCc1cccnc1; ξW = NC(Cc1c[nH]c2ccccc12)C(=O)O; Gly(N(CH2)3NH2) = NCCCNCC(=O)O; Cit = NC(=O)NCCC[CH](N)C(=O)O; Cysteamide = C(CS[*:3])N[*:1]; ξCit = NC(=O)NCCCC(N)C(=O)O; ξH = NC(Cc1c[nH]cn1)C(=O)O; Nphe = O=C(O)CNCc1ccccc1; NPrGly = CCCNCC(=O)O; ξV = CC(C)C(N)C(=O)O

Target: polyclonal human IgG
Assay: Adsorption isotherm of peptoid affinity resins against polyclonal human IgG
Type: binding
Conditions: IgG in PBS, 30 minutes; for Kd: affinity constant from hyperbola fit of adsorption isotherm, peptoid conjugated to chromatographic resin, read-out: Kd × 10^−6
Protocol: The affinity for the peptoid-resin combinations was determined by measuring the adsorption isotherm of each resin against polyclonal human IgG (Pakimna et al., J Applied Sci., 12(11): 1136-1141, 2012). Briefly, 0.050 mL of 50% resin slurry was pipetted into 6 individual wells of a 96-well filter plate (0.45 micron, PVDF, Harvard Apparatus). The resin was washed with 2×250 μL PBS using a vacuum manifold. To an individual well, 0.25 mL of a human polyclonal IgG solution at different concentrations (10, 5, 2.5, 1.25, 0.625, and 0.3125 mg/mL) was added. The resin/IgG suspension was agitated gently on a rocking table for 30 minutes. The fluid was then collected via vacuum, and the resin was washed with 0.25 mL of PBS. The filtrate and wash were then analyzed by the BCA assay to determine the residual IgG concentration relative to the starting concentration of the solution.
The equilibrium concentrations were then used to determine the capacity of the resin at each IgG concentration using the following formula: q=Volumesample×(Initial Concentration−Equilibrium Concentration)/Volumeresin
A plot of q versus equilibrium concentration was generated and the data fit with a hyperbola to determine the affinity constant (Kd) and the maximum capacity (qmax) according to the below formula, where C=the equilibrium concentration of antibody in solution: q=qmax×C/(kd+C) Typical adsorption isotherm is shown in FIG. 2. Tabulated Kd and qmax data is found in Table 2.

[1] = maximum capacity (qmax) of resin from hyperbola fit of adsorption isotherm

Kd [µM]	Compound	Qmax [1] [mg/mL]	Qmax (mg/mL) [1] [mg/mL]
7.3	CCCN(CC(=O)NCCS)C(=O)CN(CCc1c[nH]c2ccccc12)C(=O)CNC(=O)CN(CCCN)C(=O)C(Cc1c[nH]c2ccccc12)NC(=O)CNCc1cccnc1 (stereo not shown) [Ligand 16-83-3] (H-[NGly(CH2(3-pyridyl))][ξW][Gly(N(CH2)3NH2)]G[Gly(N(CH2)2(3-indolyl))][NPrGly]-Cysteamide)	51	–
6.5	NC(=O)NCCCC(NC(=O)CN(CCc1c[nH]c2ccccc12)C(=O)CNCc1cccnc1)C(=O)NC(CCCNC(N)=O)C(=O)NCCS (stereo not shown) [Ligand 16-84-2]	48	–
4.6	CC(C)C(NC(=O)CN(CCc1c[nH]c2ccccc12)C(=O)CNC(=O)CN(CCCN)C(=O)CN(CCc1c[nH]c2ccccc12)C(=O)CNCc1cccnc1)C(=O)NCCS (stereo not shown) [Ligand 16-83-6] (H-[NGly(CH2(3-pyridyl))][Gly(N(CH2)2(3-indolyl))][Gly(N(CH2)3NH2)]G[Gly(N(CH2)2(3-indolyl))][ξV]-Cysteamide)	56	–
3.6	NC(=O)NCCCC(N)C(=O)N(CC(=O)N(CCc1c[nH]c2ccccc12)CC(=O)NCC(=O)N(CCc1c[nH]c2ccccc12)CC(=O)NCCS)Cc1cccnc1 (stereo not shown) [Ligand 12-65-5] (H-[ξCit][NGly(CH2(3-pyridyl))][Gly(N(CH2)2(3-indolyl))]G[Gly(N(CH2)2(3-indolyl))]-Cysteamide)	64	–
5.3	CCCN(CC(=O)NCCS)C(=O)C(Cc1c[nH]c2ccccc12)NC(=O)CNC(=O)CN(CCCN)C(=O)CN(CCc1c[nH]c2ccccc12)C(=O)CNCc1cccnc1 (stereo not shown) [Ligand 16-83-2] (H-[NGly(CH2(3-pyridyl))][Gly(N(CH2)2(3-indolyl))][Gly(N(CH2)3NH2)]G[ξW][NPrGly]-Cysteamide)	49	–
4.9	NC(=O)NCCCC(N)C(=O)N(CCc1c[nH]c2ccccc12)CC(=O)N(CC(=O)N(CCc1c[nH]c2ccccc12)CC(=O)NCCS)Cc1cccnc1 (stereo not shown) [Ligand 16-83-9] (H-[ξCit][Gly(N(CH2)2(3-indolyl))][NGly(CH2(3-pyridyl))][Gly(N(CH2)2(3-indolyl))]-Cysteamide)	52	–
7.9	CCCN(CC(=O)NCCS)C(=O)CN(CCc1c[nH]c2ccccc12)C(=O)CNC(=O)C(CCCNC(N)=O)NC(=O)CN(CCc1c[nH]c2ccccc12)C(=O)CNCc1cccnc1 (stereo not shown) [Ligand 12-65-1] (H-[NGly(CH2(3-pyridyl))][Gly(N(CH2)2(3-indolyl))][ξCit]G[Gly(N(CH2)2(3-indolyl))][NPrGly]-Cysteamide)	65	–
6.5	CCCN(CC(=O)NCCS)C(=O)CN(CCc1c[nH]c2ccccc12)C(=O)CNC(=O)CN(CCCN)C(=O)CN(CCc1c[nH]c2ccccc12)C(=O)C(N)Cc1c[nH]cn1 (stereo not shown) [Ligand 16-83-5] (H-[ξH][Gly(N(CH2)2(3-indolyl))][Gly(N(CH2)3NH2)]G[Gly(N(CH2)2(3-indolyl))][NPrGly]-Cysteamide)	62	–
7.7	NC(=O)NCCCC(NC(=O)CNCCc1c[nH]c2ccccc12)C(=O)N(CCc1c[nH]c2ccccc12)CC(=O)N(CC(=O)NCCS)Cc1cccnc1 (stereo not shown) [Ligand 16-83-7] (H-[Gly(N(CH2)2(3-indolyl))][ξCit][Gly(N(CH2)2(3-indolyl))][NGly(CH2(3-pyridyl))]-Cysteamide)	53	–
15	CCCN(CC(=O)NCCS)C(=O)CN(CCc1c[nH]c2ccccc12)C(=O)CNC(=O)C(CCCNC(N)=O)NC(=O)CN(CCc1c[nH]c2ccccc12)C(=O)[C@@H](N)Cc1c[nH]cn1 (stereo partly shown) [Ligand 12-65-2] (H-H[Gly(N(CH2)2(3-indolyl))][ξCit]G[Gly(N(CH2)2(3-indolyl))][NPrGly]-Cysteamide)	53	–
3.6	NC(=O)NCCCC(NC(=O)CN(Cc1ccccc1)C(=O)CNCc1cccnc1)C(=O)NC(CCCNC(N)=O)C(=O)N(CC(=O)NCCS)Cc1cccnc1 (stereo not shown) [Ligand 12-65-8] (H-[NGly(CH2(3-pyridyl))][Nphe][Cit][Cit][NGly(CH2(3-pyridyl))]-Cysteamide; configuration not given here)	–	57.
4.9	NC(=O)NCCCC(N)C(=O)N(CC(=O)N(CCc1c[nH]c2ccccc12)CC(=O)N(CC(=O)NCCS)Cc1cccnc1)Cc1cccnc1 (stereo not shown) [Ligand 16-84-3] (H-[ξCit][NGly(CH2(3-pyridyl))][Gly(N(CH2)2(3-indolyl))][NGly(CH2(3-pyridyl))]-Cysteamide)	56	–
2.9	NC(=O)NCCCC(NC(=O)CN(CCc1c[nH]c2ccccc12)C(=O)CNCc1cccnc1)C(=O)N(CCc1c[nH]c2ccccc12)CC(=O)NCCS (stereo not shown) [Ligand 16-81-4] (H-[NGly(CH2(3-pyridyl))][Gly(N(CH2)2(3-indolyl))][ξCit][Gly(N(CH2)2(3-indolyl))]-Cysteamide)	64	–
33	NC(=O)NCCCC(NC(=O)CN(Cc1ccccc1)C(=O)CNCc1cccnc1)C(=O)NC(CCCNC(N)=O)C(=O)NCCS (stereo not shown) [Ligand 12-55-6] (H-[NGly(CH2(3-pyridyl))][Nphe][Cit][Cit]-Cysteamide; configuration not given here)	97	–
